Test: Urinary excretion of phenolic metabolites after intake of the GCPE nutraceutical
Conditions: for Cumulative urinary excretion, Total 0–24 h / Urinary excretion: urine; for Cumulative urinary excretion, Total 0–24 h: mean ± SEM, n = 9
Method: Participants attended the Human Nutrition Unit (HNU) at the Institute of Food Science, Technology and Nutrition (ICTAN-CSIC) on two consecutive days at the beginning of the intervention (week 0) and also on two consecutive days at the end of the study, after consuming daily two doses of the GCPE nutraceutical, providing 600 mg/d phenols, during two months (week 8). […] A licensed health care professional placed an intravenous catheter in the subjects′ nondominant arm and collected a fasting blood sample (baseline, 0 h). Then, subjects drank the soluble GCPE nutraceutical dissolved in 200 mL of water. […] On the sampling days, volunteers remained at the HNU, where a (poly)phenol-free diet was provided. Half an hour after consuming the nutraceutical, volunteers ate a breakfast consisting of ham, cheese, white bread, and a yogurt. Lunch (paella, bread, and yogurt) and an afternoon snack (muffin and yogurt) were eaten 5 and 9 h, respectively, after consuming the nutraceutical. Water and isotonic beverages were freely available. […] The same protocol was followed during visits at the end of the 8-week intervention. On each occasion, two days before each visit to the HNU, subjects consumed a low (poly)phenol diet free of foods containing hydroxycinnamates such as coffee, herbal teas, red wine, artichokes, whole grain cereals, vegetables, fruits and fruit juices, and dried fruits. Only banana, watermelon, cantaloupes, and potatoes were allowed.
Blood samples were immediately centrifuged (10 min, 3000 rpm, 4 °C) to obtain plasma. […] All biological samples were stored at −80 °C until analysis.
To extract plasma metabolites, 10 µL of 50% (v/v) aqueous formic acid, and 900 µL cold acetonitrile containing 50 µL of 10% (w/v) ascorbic acid were added to 400 µL defrosted plasma. Samples were vortexed and centrifuged (14,000 rpm, 10 min, 4 °C), repeating the extraction and combining the two supernatants, which were reduced to dryness under nitrogen [13]. Dried samples were resuspended in 150 µL of 0.1% aqueous formic acid (containing 10% acetonitrile acidified with 0.1% formic acid), centrifuged (15 min, 14,000 rpm, 4 °C), and the supernatant collected. Urine samples were diluted 1:1 with Milli-Q water and centrifuged (14,000 rpm, 20 min, 4 °C) prior to analysis. Phosphate-buffered saline (3 mL) was added to a representative 300 mg sample of thawed feces, homogenized in an ultrasound bath during 10 min, centrifuged (14,000 rpm, 20 min, 4 °C), and the supernatants collected.
Mobile phase A was 0.1% formic acid in Milli-Q water, and mobile phase B was acetonitrile containing 0.1% formic acid at a 0.3 mL/min flow rate. […] Metabolites were identified based on their retention time using authentic standards when possible. […] Urine concentration of excreted metabolites was normalized to the total volume excreted in each studied interval.
Plasma (30 µL), urine (5 µL) and fecal extracts (5 µL) were filtered through 0.45 µm
cellulose-acetate membrane filters and injected into an Agilent 1200 series LC system
ESI-Jet Stream Technology (Agilent Technologies). A reverse-phase Ascentis Express
C18 (15 cm x 3 mm, 2.7 µm) column (Sigma-Aldrich Quimica, Madrid), preceded by a
phase A was 0.1% formic acid in Milli-Q water, and mobile phase B was acetonitrile
containing 0.1% formic acid at a 0.3 mL/min flow rate. The gradient started with 10% B
at 0 min, 30% B at 10 min, 40% B at 15 min, reaching 50% B at 20 min. The starting
gradient was then re-established in 2 min and maintained for 8 min to re-equilibrate the

Compound	Cumulative urinary excretion, Total 0–24 h (week 0) [µmol]	Cumulative urinary excretion, Total 0–24 h (week 8) [µmol]	Amount excreted in urine, 0- 3 h (week 0, interval 0–3 h) [µmol]	Amount excreted in urine, 3-6 h (week 0, interval 3–6 h) [µmol]	Amount excreted in urine, 6-9 h (week 0, interval 6–9 h) [µmol]	Amount excreted in urine, 9-11 h (week 0, interval 9–11 h) [µmol]	Amount excreted in urine, 0- 3 h (week 8, interval 0–3 h) [µmol]	Amount excreted in urine, 3-6 h (week 8, interval 3–6 h) [µmol]	Amount excreted in urine, 6-9 h (week 8, interval 6–9 h) [µmol]	Amount excreted in urine, 9-11 h (week 8, interval 9–11 h) [µmol]	Urinary excretion (week 0) [µmol/24 h]	Urinary excretion (week 8) [µmol/24 h]	Amount excreted in urine, 11-24 h (week 0, interval 11–24 h) [µmol]	Amount excreted in urine, 11-24 h (week 8, interval 11–24 h) [µmol]
O=C(/C=C/c1ccc(O)c(O)c1)O[C@@H]1C[C@](O)(C(=O)O)C[C@@H](O)[C@H]1O [3-Caffeoylquinic acid]	0.21 ± 0.05	0.18 ± 0.03	0.11 ± 0.02	0.08 ± 0.03	0.022 ± 0.009	0.003 ± 0.002	0.1 ± 0.02	0.045 ± 0.008	0.028 ± 0.007	0.008 ± 0.005				
O=C(CCc1ccc(O)c(O)c1)OC1CC(O)(C(=O)O)CC(O)C1O (centres unmarked) [3-Dihydrocaffeoylquinic acid]	0.35 ± 0.07	0.27 ± 0.08	0.06 ± 0.02	0.033 ± 0.005	0.05 ± 0.02	0.04 ± 0.01	0.025 ± 0.007	0.019 ± 0.005	0.04 ± 0.01	0.03 ± 0.01	0.35	0.27	0.17 ± 0.04	0.15 ± 0.06
COc1cc(CCC(=O)OC2CC(O)(C(=O)O)CC(O)C2O)ccc1O (centres unmarked) [3-Dihydroferuloylquinic acid]	0.3 ± 0.1	0.5 ± 0.07	0.05 ± 0.01	0.034 ± 0.006	0.029 ± 0.006	0.019 ± 0.005	0.11 ± 0.02	0.062 ± 0.008	0.08 ± 0.01	0.08 ± 0.02			0.16 ± 0.09	0.14 ± 0.02
O=C(/C=C/c1ccc(O)c(O)c1)OC1[C@H](O)CC(O)(C(=O)O)C[C@H]1O (some centres unmarked) [4-Caffeoylquinic acid]	0.13 ± 0.07	0.15 ± 0.07			0.03 ± 0.02	0.05 ± 0.04	0.01 ± 0.01	0.008 ± 0.005	0.06 ± 0.03	0.05 ± 0.03			0.05 ± 0.02	0.02 ± 0.01
O=C(CCc1ccc(O)c(O)c1)OC1C(O)CC(O)(C(=O)O)CC1O (centres unmarked) [4-Dihydrocaffeoylquinic acid]	0.06 ± 0.02	0.04 ± 0.02	0.011 ± 0.004	0.005 ± 0.002	0.005 ± 0.002	0.006 ± 0.002	0.008 ± 0.004	0.003 ± 0.002	0.004 ± 0.002	0.004 ± 0.003			0.036 ± 0.008	0.02 ± 0.01
COc1cc(CCC(=O)OC2C(O)CC(O)(C(=O)O)CC2O)ccc1O (centres unmarked) [4-Dihydroferuloylquinic acid]	0.06 ± 0.02	0.05 ± 0.02	0.011 ± 0.004	0.008 ± 0.003	0.013 ± 0.005	0.005 ± 0.003	0.015 ± 0.008		0.011 ± 0.007	0.003 ± 0.002			0.019 ± 0.009	0.009 ± 0.005
O=C(/C=C/c1ccc(O)c(O)c1)O[C@@H]1C[C@@](O)(C(=O)O)C[C@@H](O)[C@@H]1O [5-Caffeoylquinic acid]	0.33 ± 0.06	0.33 ± 0.04	0.18 ± 0.04	0.12 ± 0.04	0.03 ± 0.01	0.004 ± 0.002	0.18 ± 0.04	0.08 ± 0.01	0.033 ± 0.008	0.009 ± 0.007				0.006 ± 0.006
